Results taken from publication PMC13059744 (mBio, 2026).

System: cabABC promoter (PcabABC-luc) in S. mitis G22
Assay: cabABC expression, PcabABC-luc reporter in S. mitis G22
Type: cell-based, Streptococcus mitis
Settings: after CSPG22 treatment in acidic medium; Fig. S3B

ESRLSRLLRDFIFQIKQ [CSPG22]
time of peak cabABC expression post-induction: approximately 70 min
